Broadly, the Ki is the equilibrium dissociation constant of an inhibitor or competing ligand from its target. A low value points to a stronger hold on the target.

Assay [1] deals with wild type petunia EPSP synthase (Petunia hybrida, UniProt P11043). Kind of assay: EPSP synthase kinetic constants (appKi glyphosate, appKm PEP). It counts as biochemical.
Description: The reaction was quenched by the addition of 50 μl of 50 μl of 90% ethanol/0.1M acetic acid, pH 4.5. 70 μl of the reaction mixture was loaded on a SynchroPak AX100 HPLC column (0.4×25 cm) and the column was eluted with 0.5M potassium phosphate, pH 5.5 at 1 ml/min. The radioactivity of the eluent was monitored using a Radiomatic Flo-One Beta Instrument. […] The protein content of the extract was determined by the method of Bradford (Biorad Labs, Calif.). The specific activity of the extract is expressed as nanomoles of EPSP synthase formed/min/mg protein.
For assay [2], the system named is E. coli JM101 culture #215 (pMON8186). In words: Growth curve analysis in liquid MOPS medium with glyphosate. The following applies: MOPS medium containing 10 mM glyphosate, 37° C. It counts as cell-based.
Description: This growth curve analysis functioned as a tertiary screen and was performed in the following way:
Glyphosate resistant colonies were picked off the selection plates and inoculated individually into precultures containing 1 ml of MOPS medium and 50 μg/ml carbenicillin. The precultures were then grown to saturation by shaking the cultures overnight at 37° C. The next morning the density of each culture was determined by withdrawing a 100 μl aliquot from each and diluting it 10 fold with the addition of 900 μl MOPS medium, then reading the optical density at a wavelength of 660 nm in a spectrophotometer. The saturated precultures were then diluted to 1% by adding 50 μl from each saturated preculture to 5 ml of MOPS media containing 0, 5 or 10 mM glyphosate. The diluted precultures were grown in glass culture tubes fitted with stainless steel closures, rotating on a wheel at 37° C. The glass culture tubes were designed for direct reading in a Klett-Summerson photoelectric colorimeter, which was used to monitor the growth of the bacterial cultures at approximately 3 hour intervals.
In assay [3] the target is T1, variant petunia EPSP synthase with glycine (101) to alanine and glycine (144) to asparagine substitutions (Petunia hybrida, UniProt P11043, G173A/G216N).
T1 construct: GGT codon for glycine (144) in the mature petunia EPSP synthase
Kind of assay: EPSP synthase kinetic constants (Ki glyphosate, Km PEP). It counts as biochemical. As to the method: (§1) Kinetic constants (appKm PEP and appKi glyphosate) were determined for EPSP synthase as described below. Substrate kinetic parameters were determined at pH 7.0 in 50 mM HEPES (N-[2-hydroxyethyl]piperazine-N'-[2-ethanesulfonic acid]) buffer in the presence of 2 mM S3P and varying amounts of ^14 C-PEP (10 μM-400 μM), for 2.0 minutes at 25° C. Reactions were quenched with 100 mM Na Acetate in ethanol, pH 4.5, centrifuged and analyzed for product EPSP formation by HPLC with flow radioactivity detection. HPLC conditions were 0.35 MKPi, pH 6.5, on a Synchropak AX100 column at 1.0 ml/min.

Assay [4] deals with E. coli SR481 (aroA-) carrying pMON8152. Kind of assay: Growth on minimal medium containing glyphosate. Format: cell-based. As to the method: The heterologous expression system was tested with a known variant to see if glyphosate resistant variants of petunia EPSPS could be selected. […] That was achieved by replacing the 660 bp EcoRI-HindIII region from both vectors with the 660 bp EcoRI-HindIII region from pMON9566 which contained the glycine (101) to alanine mutation.

A further assay has as its system MP4 cells. Kind of assay: Suspension culture of petunia cells in glyphosate medium. Format: cell-based. The following applies: MS media containing 0.5 mM glyphosate (sodium salt); estimated; read-out: cells which survived, of the starting population. As to the method:
The starting cell line, designated as the MP4 line, was derived from a Mitchell diploid petunia (see e.g., Ausubel 1980). The MP4 cells were suspended in Murashige and Skoog (MS) culture media, (GIBCO, Grand Island, N.Y.) All transfers involved dispensing 10 ml of suspension cultures into 50 ml of fresh media. Cultivation periods until the next transfer ranged from 10 to 14 days, and were based on visual indications that the culture was approaching saturation.
Approximately 10 ml of saturated suspension culture (containing about 5×10^6 cells) were transferred into 50 ml of MS media containing 0.5 mM glyphosate. The sodium salt of glyphosate was used throughout the experiments described herein. The large majority of cells were unable to reproduce in the presence of the glyphosate. The cells which survived (estimated to be less than 1% of the starting population) were cultured in 0.5 mM glyphosate and transferred to fresh media containing glyphosate every 10 to 14 days.

For assay [5], the system named is E. coli SR481 (aroA-) carrying pMON8143. In words: Growth on minimal medium containing glyphosate. Format: cell-based. The source says:
Chromosomal DNA isolated from the E. coli strain SR20 (GM42 hfr, his-, dam3-) was digested completely with MboI. The MboI fragments were cloned into the BglII site of plasmid pMON9564. The BglII site is in a multilinker located upstream of the promoterless petunia EPSPS coding sequence which had been tailored for expression in E. coli. The ligation mixture was used to transform E. coli strain SR481, the aroA- variant lacking endogenous EPSPS activity. Forty-one colonies were obtained which contained MboI fragments with sufficient promoter activity to express the Petunia EPSPS cDNA, complementing the aroA defect in SR481 and supporting cell growth on minimal medium. The 41 colonies were streaked individually onto MOPS minimal medium containing glyphosate at 1, 5, 10, 15 and 20 μM concentrations. The amount of cell growth on increasing concentrations of glyphosate was used as a measure of the relative promoter strength of each MboI fragment expressing the petunia EPSPS coding sequence. To further characterize each of the MboI promoter fragments, plasmid miniprep DNA was prepared by the alkaline lysis method from each of the 41 colonies and was digested individually with EcoRI, BamHI, HindIII, ClaI and NcoI. Those restriction enzymes were chosen because they cut within, or flank the petunia EPSPS coding sequence and would be used for mobilizing mutagenized fragments. Therefore, ideal promoter fragments would not contain restriction sites for any of those enzymes. There were 8 MboI fragments with varying degrees of promoter activity which lacked restriction sites for the enzymes listed above. Two of them, pMON8105 and pMON8143, were selected for further characterization. Both plasmids complemented the aroA defect and supported the growth of SR481 on minimal medium containing up to 1 mM (pMON8105) and 20 mM (pMON8143) glyphosate.

Assay [6] deals with T2, petunia EPSP synthase glycine (101) to alanine variant (Petunia hybrida, UniProt P11043, G173A).
T2 construct: made in house; host or cells: E. coli
Kind of assay: EPSP synthase kinetic constants (appKi glyphosate, appKm PEP). Format: biochemical. As to the method: To an assay mix (40 μl) containing shikimate-3-phosphate (2 mM), ^14 C-phosphoenolpyruvate (1 mM, 1.2 mCi/mmol), ammonium molybdate (0.1 mM), potassium fluoride (5 mM) in 50 mM HEPES-KOH, pH 7, was added the extract and incubated at 25° C. for 2 mins. The reaction was quenched by the addition of 50 μl of 50 μl of 90% ethanol/0.1M acetic acid, pH 4.5. 70 μl of the reaction mixture was loaded on a SynchroPak AX100 HPLC column (0.4×25 cm) and the column was eluted with 0.5M potassium phosphate, pH 5.5 at 1 ml/min. The radioactivity of the eluent was monitored using a Radiomatic Flo-One Beta Instrument. (Radiomatics, Fla.). The EPSP synthase activity was determined by measurement of the conversion of ^14 C-PEP to ^14 C-EPSP synthase, both of which are resolved under the above conditions of chromatography. The protein content of the extract was determined by the method of Bradford (Biorad Labs, Calif.). The specific activity of the extract is expressed as nanomoles of EPSP synthase formed/min/mg protein.
as §1

T2 sequence (P11043 73-516 G173A): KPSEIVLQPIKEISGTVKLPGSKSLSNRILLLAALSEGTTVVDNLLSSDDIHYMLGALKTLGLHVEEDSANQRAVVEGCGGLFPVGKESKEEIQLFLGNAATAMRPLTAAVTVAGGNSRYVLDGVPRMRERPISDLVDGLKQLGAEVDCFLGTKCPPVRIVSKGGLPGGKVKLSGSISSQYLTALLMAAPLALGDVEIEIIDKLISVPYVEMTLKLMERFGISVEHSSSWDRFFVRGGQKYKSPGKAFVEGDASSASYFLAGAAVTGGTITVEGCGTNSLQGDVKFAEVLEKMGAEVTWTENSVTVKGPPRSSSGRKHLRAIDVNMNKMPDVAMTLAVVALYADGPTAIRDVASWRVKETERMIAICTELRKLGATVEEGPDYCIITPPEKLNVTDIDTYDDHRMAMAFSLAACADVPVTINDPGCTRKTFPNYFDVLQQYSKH
T1 sequence (P11043 73-516 G173A/G216N): as the sequence (P11043 73-516 G173A) above, with G144N counted along it
Sequence of wild type petunia EPSP synthase (P11043 73-516): as the sequence (P11043 73-516 G173A) above, with A101G counted along it

`O=C(O)CNCP(=O)(O)O` [glyphosate, N-phosphonomethylglycine]: the inhibition constant (Ki) in assay [1] was found to be 400 nM; in assay [6] it was 2 mM. Moreover, the “time of growth to saturation” value in assay [2] is no more than 11 h. The same compound had a Ki for glyphosate in assay [3] of 960 µM. The compound further showed a Ki/Km in assay [3] (Ki glyphosate / Km PEP) of 10.5. Further, the figures for the “glyphosate concentration up to which growth on minimal medium is supported” value in assay [4] and in assay [5] were “up to 50 mM” and no more than 20 mM, respectively. In addition, the viability at 500 µM in the assay on MP4 cells was less than 1%. Besides, the Ki/Km ratio in assay [6] (Ki glyphosate / Km PEP) turned out to be 10.0.

Source of the values: patent US5310667A (priority 1989, dated 1994).
